Data published in ChEMBL document CHEMBL1201862, “PubChem BioAssay data set” (2004).
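Cultured in 96-well plates, cells were exposed to test compound for 48 hours across five concentrations. At the GI50, growth is halved.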 Activity calls are given as the source filed them. Cut-off read from the data, not from the text of the source: active = GI50 up to about 1.1 µM and inactive = higher.

Columns and labels:
Test in all cases: inhibition of tumour cell growth, NCI panel, 48 h
A498 = system: A498
A549 = system: A549
HL-60 = system: HL-60
Hs-578T = system: Hs-578T
KM12 = system: KM12
LOX IMVI = system: LOX IMVI
M14 = system: M14
MDA-N = system: MDA-N
MOLT-4 = system: MOLT-4
NCI-H460 = system: NCI-H460
OVCAR-8 = system: OVCAR-8
RPMI-8226 = system: RPMI-8226
RXF 393 = system: RXF 393
SF-295 = system: SF-295
SF-539 = system: SF-539
SN12C = system: SN12C
U-251 = system: U-251
UO-31 = system: UO-31
SK-OV-3 = system: SK-OV-3
CCRF-CEM = system: CCRF-CEM

Measured: GI50

CCOC(=O)C(CCc1ncnc2c1ncn2Cc1ccccc1)(CCc1ncnc2c1ncn2Cc1ccccc1)C(=O)OCC
inactive: A498 47.4 µM | A549 39.2 µM | HL-60 38.3 µM | Hs-578T 83.2 µM | KM12 46.9 µM | LOX IMVI 44.4 µM | M14 54.6 µM | MDA-N 33 µM | MOLT-4 13.4 µM | NCI-H460 40.4 µM | OVCAR-8 64.1 µM | RPMI-8226 23.6 µM | RXF 393 32.4 µM | SF-295 70.3 µM | SF-539 30.3 µM | SN12C 58.6 µM | U-251 62.1 µM | UO-31 2.64 µM

c1ccc(CNCCN2CCNCC2)nc1
inactive: A498 > 100 µM | A549 > 100 µM | Hs-578T > 100 µM | KM12 > 100 µM | LOX IMVI > 100 µM | M14 > 100 µM | MDA-N > 100 µM | MOLT-4 > 100 µM | NCI-H460 > 100 µM | OVCAR-8 > 100 µM | RPMI-8226 > 100 µM | RXF 393 > 100 µM | SF-295 > 100 µM | SF-539 > 100 µM | SK-OV-3 > 100 µM | SN12C > 100 µM | U-251 > 100 µM | UO-31 > 100 µM

CC(=O)N(O)c1ccc(-c2nc3ccccc3s2)cc1
inactive: A498 35.6 µM | A549 42.6 µM | CCRF-CEM > 100 µM | Hs-578T 32.7 µM | KM12 38.2 µM | LOX IMVI 63.4 µM | M14 85.7 µM | MDA-N 77.6 µM | MOLT-4 48.6 µM | NCI-H460 46.9 µM | OVCAR-8 40.9 µM | RPMI-8226 15 µM | RXF 393 61.8 µM | SF-295 45.2 µM | SN12C > 100 µM | U-251 87.9 µM | UO-31 46 µM

COc1cc(/N=N/N(C)C)c(C(C)c2c3cc(OC)c(OC)cc3cc[n+]2C)cc1OC (stereo not drawn)
inactive: A498 > 100 µM | A549 > 100 µM | CCRF-CEM 37.3 µM | Hs-578T 63.5 µM | KM12 14.3 µM | LOX IMVI 25.2 µM | M14 86.3 µM | MDA-N 34.8 µM | MOLT-4 56.1 µM | NCI-H460 30.8 µM | OVCAR-8 39.1 µM | RPMI-8226 7.76 µM | RXF 393 17.6 µM | SF-295 > 100 µM | SF-539 10.3 µM | SK-OV-3 > 100 µM | SN12C 40.5 µM | U-251 38.6 µM | UO-31 > 100 µM

O=C1NC(=O)C2(CCCCCC2)N1
inactive: A498 > 100 µM | A549 > 100 µM | CCRF-CEM > 100 µM | Hs-578T > 100 µM | KM12 > 100 µM | LOX IMVI > 100 µM | M14 > 100 µM | MDA-N > 100 µM | MOLT-4 > 100 µM | NCI-H460 > 100 µM | OVCAR-8 > 100 µM | RPMI-8226 > 100 µM | RXF 393 > 100 µM | SF-295 > 100 µM | SF-539 > 100 µM | SK-OV-3 > 100 µM | SN12C > 100 µM | U-251 > 100 µM | UO-31 > 100 µM

CC1=[N+](C)CCN1C
inactive: A549 > 100 µM | CCRF-CEM > 100 µM | HL-60 > 100 µM | Hs-578T > 100 µM | KM12 > 100 µM | LOX IMVI > 100 µM | M14 > 100 µM | MDA-N > 100 µM | MOLT-4 > 100 µM | NCI-H460 > 100 µM | OVCAR-8 > 100 µM | RPMI-8226 > 100 µM | RXF 393 > 100 µM | SF-295 > 100 µM | SF-539 > 100 µM | SK-OV-3 > 100 µM | SN12C > 100 µM | U-251 > 100 µM | UO-31 > 100 µM

COc1ccc(C(Nc2ccccn2)c2cc(C(C)(C)C)cc(C(C)(C)C)c2O)cc1 (stereo not drawn)
inactive: A498 54.8 µM | A549 30 µM | Hs-578T 6.07 µM | KM12 14.9 µM | LOX IMVI 13.9 µM | M14 16.4 µM | MDA-N 20.7 µM | NCI-H460 16.7 µM | OVCAR-8 43.4 µM | RPMI-8226 23.1 µM | RXF 393 7.74 µM | SF-295 12.4 µM | SF-539 48.1 µM | SK-OV-3 19.5 µM | SN12C 18.1 µM | U-251 19.8 µM | UO-31 29.9 µM

CN/N=C(/C=C/c1ccccc1)C(C)C
inactive: A549 > 100 µM | CCRF-CEM > 100 µM | HL-60 > 100 µM | Hs-578T > 100 µM | KM12 > 100 µM | LOX IMVI > 100 µM | M14 > 100 µM | MDA-N > 100 µM | MOLT-4 > 100 µM | NCI-H460 > 10 µM | OVCAR-8 > 100 µM | RPMI-8226 > 100 µM | RXF 393 > 100 µM | SF-295 > 100 µM | SF-539 > 100 µM | SK-OV-3 > 100 µM | SN12C > 100 µM | U-251 > 100 µM | UO-31 > 100 µM

CC(C)CC(=O)OC[n+]1cccc(-c2c(COC(=O)NC(C)C)c(COC(=O)NC(C)C)c3n2CCC3)c1
inactive: A498 23.3 µM | A549 79.1 µM | CCRF-CEM 34.1 µM | Hs-578T 74.1 µM | KM12 > 100 µM | LOX IMVI 26.8 µM | M14 61.4 µM | MDA-N > 100 µM | MOLT-4 38 µM | NCI-H460 30.1 µM | OVCAR-8 48.8 µM | RPMI-8226 15.2 µM | RXF 393 33.9 µM | SF-295 39 µM | SF-539 37.5 µM | SK-OV-3 55.3 µM | SN12C 36.9 µM | U-251 41.5 µM | UO-31 31.3 µM

Cc1ccc(O)c(Cc2nc3ccccc3nc2-c2cccc(Br)c2)c1
inactive: A549 > 100 µM | CCRF-CEM 28.4 µM | HL-60 52.1 µM | Hs-578T 12.5 µM | KM12 > 100 µM | LOX IMVI > 100 µM | M14 > 100 µM | MDA-N > 100 µM | MOLT-4 25.2 µM | NCI-H460 > 100 µM | OVCAR-8 > 100 µM | RPMI-8226 47.3 µM | RXF 393 > 100 µM | SF-295 > 100 µM | SF-539 > 100 µM | SK-OV-3 > 100 µM | SN12C > 100 µM | U-251 > 100 µM | UO-31 89.1 µM

CC(C)(C)OC(=O)N(O)[C@@H]1CC[C@H](n2cnc3c(N)ncnc32)C1
inactive: A498 > 100 µM | A549 > 100 µM | CCRF-CEM > 100 µM | Hs-578T > 100 µM | KM12 > 100 µM | LOX IMVI > 100 µM | M14 > 100 µM | MDA-N > 100 µM | MOLT-4 > 100 µM | NCI-H460 > 100 µM | OVCAR-8 > 100 µM | RPMI-8226 > 100 µM | RXF 393 > 100 µM | SF-295 > 100 µM | SF-539 > 100 µM | SK-OV-3 > 100 µM | SN12C > 100 µM | U-251 > 100 µM | UO-31 96.8 µM
